The values that follow come from patent publication US20150307491A1, “SUBSTITUTED PYRIDOPYRAZINES AS SYK INHIBITORS” (HUTCHISON MEDIPHARMA LIMITED, priority 2012, published 2015).

The subject of this test is RBL-2H3 cells. In words: IgE-induced Beta-hexosaminidase secretion in RBL-2H3 cells. To be noted: Rattus norvegicus; RBL-2H3 cells sensitized with SPE-7, stimulated with DNP-BSA. In kind it is cell-based. The procedure:
For the determination of IgE-induced Beta-hexosaminidase secretion, RBL-2H3 cells (SIBS) are seeded in 96 well plates at 4×10^4 cells per well and incubated in MEM media with 15% FBS and Glutamine ([…]) for 4 hours and sensitized with 0.5 ug/ml of SPE-7 overnight. Cells are washed 3 times with Tyrode's buffer and incubated in the presence or absence of various concentrations of the testing compound for 20 min at 37° C., 5% CO2. Cells are stimulated by adding 10 μL of DNP-BSA solution (150 ng/mL) to each well and incubating for 45 minutes at 37° C., 5% CO2. Then, 45 μL of the supernatant is taken and incubated with 100 μL of 1 mM 4-Nitrophenyl N-acetyl-β-D-glucosaminide (Sigma, Cat. No. N9376), which is diluted in 0.05 M citrate buffer (pH 4.5), for 1.5 hr at 37° C. The reactions are quenched by adding 185 μL of 0.05 M sodium carbonate buffer (pH 10.0). Plates are read at 405 nm on Multiskan (MK 3).
The term IC50 denotes the point on the concentration scale where inhibition reaches its midpoint. Turning to `CNc1ccc(-c2cc3nccnc3c(OC[C@@H]3CN(S(C)(=O)=O)CCO3)n2)cc1F` [Compound 52], the IC50 lay in the range of 1 to 100 nM.

Take `CCS(=O)(=O)N1CCC(c2ccc(-c3cc4nccnc4c(OC[C@@H]4CN(C(C)=O)CCO4)n3)cc2)CC1` [Compound 23]: the IC50 lay within 100 to 1000 nM.

`CC(=O)N1CCO[C@H](COc2nc(-c3ccc(N4CCN(CCO)CC4)cc3)cc3nccnc23)C1` [Compound 49]: the IC50 lay in the range of 100 to 1000 nM.

For the molecule `CN(C)c1ccc(-c2cc3nccnc3c(OC[C@@H]3CN(C(=O)c4cccnc4)CCO3)n2)cc1` [Compound 78], the IC50 lay within 1 to 100 nM.

Consider `Cc1nccn1CCS(=O)(=O)N1CCO[C@H](COc2nc(-c3ccc(N(C)C)cc3)cc3nccnc23)C1` [Compound 101, (S)—N,N-dimethyl-4-(5-((4-(2-(2-methyl-1H-imidazol-1-yl)ethylsulfonyl)morpholin-2-yl)methoxy)pyrido[4,3-b]pyrazin-7-yl)aniline], for which the IC50 was 100 to 1000 nM.

`CN(C)c1ccc(-c2cc3nccnc3c(OC[C@@H]3CN(C(=O)C4CCCC4)CCO3)n2)cc1` [Compound 98]: the IC50 fell in the range of 100 to 1000 nM.

As to `CS(=O)(=O)N1CCO[C@H](COc2nc(-c3ccc(N4CCN(CCO)CC4)cc3)cc3nccnc23)C1` [Compound 27], the IC50 is 100 to 1000 nM.

For `O=C(C(F)F)N1CCO[C@H](COc2nc(-c3ccc(N4CCNCC4)cc3)cc3nccnc23)C1` [Compound 6, (S)-2,2-difluoro-1-(2-((7-(4-(piperazin-1-yl)phenyl)pyrido[4,3-b]pyrazin-5-yloxy)methyl)morpholino)ethanone], the IC50 was 100 to 1000 nM.

In the case of `CC(C)C(=O)N1CCO[C@H](COc2nc(-c3ccc(N(C)C)cc3)cc3nccnc23)C1` [Compound 68], the IC50 lay in the range of 100 to 1000 nM.

Consider `C[C@@H]1CN(c2ccc(-c3cc4nccnc4c(OC[C@@H]4CN(S(C)(=O)=O)CCO4)n3)cc2)C[C@H](C)O1` [Compound 19], for which the IC50 is 100 to 1000 nM.

In the case of `CCN(CC)c1ccc(-c2cc3nccnc3c(OC[C@@H]3CN(S(C)(=O)=O)CCO3)n2)cc1` [Compound 119], the IC50 fell in the range of 1 to 100 nM.

Regarding `CNc1ccc(-c2cc3nccnc3c(O[C@@H]3CCOC3)n2)cc1` [Compound 133], the IC50 is 1 to 100 nM.

Take `Cc1cc(-c2cc3nccnc3c(OC[C@@H]3CN(S(C)(=O)=O)CCO3)n2)ccc1N(C)C` [Compound 134]: the IC50 lay in the range of 1 to 100 nM.

For the molecule `CN(C)c1ccc(-c2cc3nccnc3c(OC[C@@H]3CN(C(=O)C4CC(F)(F)C4)CCO3)n2)cc1` [Compound 71], the IC50 lay within 100 to 1000 nM.

On to `CN(C)c1ccc(-c2cc3nccnc3c(OC[C@@H]3CN(C(=O)CC#N)CCO3)n2)cc1` [Compound 76], for which the IC50 fell in the range of 1 to 100 nM.

With `CNS(=O)(=O)N1CCO[C@H](COc2nc(-c3ccc(N4CCOCC4)cc3)cc3nccnc23)C1` [Compound 55], the IC50 is 100 to 1000 nM.

For `COCCS(=O)(=O)N1CCO[C@H](COc2nc(-c3ccc(N4CCOCC4)cc3)cc3nccnc23)C1` [Compound 66], the IC50 fell in the range of 100 to 1000 nM.

As to `CNc1ccc(-c2cc3nccnc3c(OC[C@@H]3CN(S(C)(=O)=O)CCO3)n2)cc1` [Compound 36], the IC50 was 1 to 100 nM.

Regarding `CN(C)c1ccc(-c2cc3nccnc3c(OC[C@@H]3CN(C(=O)c4ncc[nH]4)CCO3)n2)cc1` [Compound 86], the IC50 was 100 to 1000 nM.

Regarding `CN(C)c1ccc(-c2cc3nccnc3c(OC[C@@H]3CN(C(=O)[C@H]4CC[C@H](O)CC4)CCO3)n2)cc1` [Compound 74], the IC50 lay within 100 to 1000 nM.

As to `CN1CCN(c2ccc(-c3cc4nccnc4c(OC[C@@H]4CN(S(C)(=O)=O)CCO4)n3)cc2)CC1` [Compound 13], the IC50 was 1 to 100 nM.

With `CN(C)CCS(=O)(=O)N1CCO[C@H](COc2nc(-c3ccc(N4CCOCC4)cc3)cc3nccnc23)C1` [Compound 65], the IC50 lay in the range of 100 to 1000 nM.

As to `CS(=O)(=O)N1CCO[C@H](COc2nc(-c3ccc(N4CCOCC4)c(F)c3)cc3nccnc23)C1` [Compound 7], the IC50 was 100 to 1000 nM.

Turning to `CS(=O)(=O)N1CCO[C@H](COc2nc(-c3ccc(C4CCN(CCO)CC4)cc3)cc3nccnc23)C1` [Compound 58, (S)-2-(4-(4-(5-((4-(methylsulfonyl)morpholin-2-yl)methoxy)pyrido[3,4-b]pyrazin-7-yl)phenyl)piperidin-1-yl)ethanol], the IC50 was in the range of 100 to 1000 nM.

For `CS(=O)(=O)N1CCO[C@H](COc2nc(-c3ccc4ncccc4c3)cc3nccnc23)C1` [Compound 111], the IC50 lay in the range of 100 to 1000 nM.

Turning to `CCN1CCN(c2ccc(-c3cc4nccnc4c(OC[C@@H]4CN(C(=O)C(F)F)CCO4)n3)cc2)CC1` [Compound 17], the IC50 lay in the range of 1 to 100 nM.

Regarding `O=S(=O)(C1CC1)N1CCO[C@H](COc2nc(-c3ccc(N4CCOCC4)cc3)cc3nccnc23)C1` [Compound 83], the concentration for half-maximal inhibition (IC50) lay within 1 to 100 nM.

On to `CS(=O)(=O)N1CCO[C@H](COc2nc(-c3ccc(N4CCCCC4)cc3)cc3nccnc23)C1` [Compound 21], for which the IC50 fell in the range of 1 to 100 nM.

With `CC(=O)N1CCO[C@H](COc2nc(-c3ccc(N4CCOCC4)cc3)cc3nccnc23)C1` [Compound 24], the IC50 lay in the range of 100 to 1000 nM.

Take `CCN(CC)c1ccc(-c2cc3nccnc3c(OC[C@@H]3CN(C(C)=O)CCO3)n2)cc1` [Compound 131]: the IC50 lay within 1 to 100 nM.

With `CN(C)c1ccc(-c2cc3nccnc3c(O[C@@H]3CCOC3)n2)cc1` [Compound 123], the IC50 is 1 to 100 nM.

For `CNC(=O)COc1ccc(-c2cc3nccnc3c(OC[C@@H]3CN(S(C)(=O)=O)CCO3)n2)cc1` [Compound 129], the IC50 was 100 to 1000 nM.

In the case of `NS(=O)(=O)N1CCO[C@H](COc2nc(-c3ccc(N4CCOCC4)cc3)cc3nccnc23)C1` [Compound 62], the IC50 fell in the range of 1 to 100 nM.

On to `NS(=O)(=O)N1CCO[C@H](COc2nc(-c3ccc(N4CCCC4)cc3)cc3nccnc23)C1` [Compound 30], for which the IC50 is 100 to 1000 nM.

In the case of `CS(=O)(=O)N1CCO[C@H](COc2nc(-c3ccc(N4CCOCC4)cc3)cc3nccnc23)C1` [Compound 12], the IC50 fell in the range of 1 to 100 nM.

Consider `CNC(=O)N1CCO[C@H](COc2nc(-c3ccc(N(C)C)cc3)cc3nccnc23)C1` [Compound 137], for which the IC50 lay in the range of 1 to 100 nM.

For the molecule `CN(C)c1ccc(-c2cc3nccnc3c(OC[C@@H]3CN(C(=O)Cc4c[nH]cn4)CCO3)n2)cc1` [Compound 84], the IC50 is 100 to 1000 nM.

Take `NS(=O)(=O)N1CCO[C@H](COc2nc(-c3ccc(N4CCCCC4)cc3)cc3nccnc23)C1` [Compound 28]: the IC50 was in the range of 100 to 1000 nM.

Turning to `CN1CCN(c2ccc(-c3cc4nccnc4c(OC[C@@H]4CN(S(N)(=O)=O)CCO4)n3)cc2)CC1` [Compound 64], the IC50 fell in the range of 100 to 1000 nM.

`CN(C)c1ccc(-c2cc3nccnc3c(OC[C@@H]3CN(C(N)=O)CCO3)n2)cc1` [Compound 136]: the IC50 is 1 to 100 nM.

As for `CC(=O)N1CCC(c2ccc(-c3cc4nccnc4c(OC[C@@H]4CN(C(C)=O)CCO4)n3)cc2)CC1` [Compound 54], the IC50 lay within 100 to 1000 nM.

As for `Cn1ccc2ccc(-c3cc4nccnc4c(OC[C@@H]4CN(S(C)(=O)=O)CCO4)n3)cc21` [Compound 120], the IC50 was in the range of 1 to 100 nM.

As for `COC1CCN(c2ccc(-c3cc4nccnc4c(OC[C@@H]4CN(C(C)=O)CCO4)n3)cc2)CC1` [Compound 48], the IC50 lay in the range of 100 to 1000 nM.

`CNc1ccc(-c2cc3nccnc3c(OC[C@@H]3CN(C(=O)[C@H]4CCOC4)CCO3)n2)cc1` [Compound 50]: the IC50 lay in the range of 100 to 1000 nM.

On to `CC(=O)N1CCN(c2ccc(-c3cc4nccnc4c(OC[C@@H]4CN(S(C)(=O)=O)CCO4)n3)cc2)CC1` [Compound 122], for which the IC50 was 1 to 100 nM.

Turning to `CS(=O)(=O)N1CCO[C@H](COc2nc(-c3ccc(C4CCOCC4)cc3)cc3nccnc23)C1` [Compound 11], the IC50 lay in the range of 1 to 100 nM.

Take `CS(=O)(=O)N1CCO[C@H](COc2nc(-c3ccc4c(c3)OCO4)cc3nccnc23)C1` [Compound 110]: the IC50 was 100 to 1000 nM.

Consider `O=C(C(F)F)N1CCO[C@H](COc2nc(-c3ccc(N4CCOCC4)cc3)cc3nccnc23)C1` [Compound 61], for which the IC50 was 1 to 100 nM.

As for `CN(C)c1ccc(-c2cc3nccnc3c(OC[C@@H]3CN(C(=O)c4cnn(C)c4)CCO3)n2)cc1` [Compound 87], the IC50 is 100 to 1000 nM.

For the molecule `Cn1ccc2cc(-c3cc4nccnc4c(OC[C@@H]4CN(S(C)(=O)=O)CCO4)n3)ccc21` [Compound 39], the IC50 was in the range of 1 to 100 nM.

In the case of `CN(CC#N)CCS(=O)(=O)N1CCO[C@H](COc2nc(-c3ccc(N(C)C)cc3)cc3nccnc23)C1` [Compound 104], the IC50 lay within 100 to 1000 nM.

As for `NS(=O)(=O)N1CCO[C@H](COc2nc(-c3ccc(N4CCC(F)(F)CC4)cc3)cc3nccnc23)C1` [Compound 29], the IC50 was 100 to 1000 nM.

On to `NC(=O)N1CCO[C@H](COc2nc(-c3ccc(N4CCOCC4)cc3)cc3nccnc23)C1` [Compound 63], for which the concentration for half-maximal inhibition (IC50) is 100 to 1000 nM.

As for `CN(C)c1ccc(-c2cc3nccnc3c(OC[C@@H]3CN(C(=O)CCC#N)CCO3)n2)cc1` [Compound 77], the IC50 fell in the range of 100 to 1000 nM.

As for `CN(C)c1ccc(-c2cc3nccnc3c(OC[C@@H]3CN(C(=O)C4CCOCC4)CCO3)n2)cc1` [Compound 73], the IC50 is 100 to 1000 nM.

For the molecule `CC(C)(O)C1CCN(c2ccc(-c3cc4nccnc4c(OC[C@@H]4CN(S(C)(=O)=O)CCO4)n3)cc2)CC1` [Compound 22], the IC50 is 1 to 100 nM.

For the molecule `CC1CN(c2ccc(-c3cc4nccnc4c(OC[C@@H]4CN(S(C)(=O)=O)CCO4)n3)cc2)CCO1` (stereo partly shown) [Compound 18], the IC50 fell in the range of 1 to 100 nM.

Turning to `CN(C)c1ccc(-c2cc3nccnc3c(OC[C@@H]3CN(S(=O)(=O)CCN4CC[C@@H](O)C4)CCO3)n2)cc1` [Compound 102], the IC50 is 100 to 1000 nM.
